Here are results for 5 compounds from patent EP4032896A1, “THIAZOLOPYRIMIDONES AS INHIBITORS OF DDR1/2 AND THERAPEUTIC USES THEREOF” (Fundación del Sector Público Estatal Centro Nacional de …, priority 2021, dated 2022).

Assay [1] has as its target T1, DDR1 (Homo sapiens, UniProt Q08345).
T1 construct: The enzymes were purchased as a catalytic domain GST Tag DDR1(#PR6913A); purchased ThermoFisher PR6913A
Put plainly: LanthaScreen Eu-Kinase Binding Assay (TR-FRET tracer displacement), DDR1. The conditions noted are these: catalytic domain GST Tag DDR1; Kinase Tracer 178. Summed up:
(§1)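 TR-FRET displacement of Alexa Fluor Kinase Tracer 178 from GST-tagged catalytic-domain DDR1 or DDR2, detected with Eu-labelled anti-GST antibody under kit-recommended conditions. The acceptor/donor emission ratio (665/615 nm) was plotted against inhibitor concentration and fitted to a sigmoid dose-response curve.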
For orientation: In TR-FRET formats the signal depends on donor and acceptor labels being close together.

In assay [2] the target is T2, DDR2 (Homo sapiens, UniProt Q16832).
T2 construct: The enzymes were purchased as a catalytic domain GST Tag DDR1(#PR6913A) and DDR2 (#PR7167A); purchased ThermoFisher PR7167A
T2 sequence (Q16832 563-849 limits assumed): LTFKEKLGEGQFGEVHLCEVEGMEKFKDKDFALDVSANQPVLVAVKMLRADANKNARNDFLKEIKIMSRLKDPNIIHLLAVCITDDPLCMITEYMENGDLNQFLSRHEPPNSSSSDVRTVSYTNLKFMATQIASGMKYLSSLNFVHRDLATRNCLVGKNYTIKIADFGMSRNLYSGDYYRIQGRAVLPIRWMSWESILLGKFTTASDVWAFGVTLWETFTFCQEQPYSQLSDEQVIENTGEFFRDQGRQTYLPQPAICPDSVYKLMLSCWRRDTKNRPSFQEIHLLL
Put plainly: LanthaScreen Eu-Kinase Binding Assay (TR-FRET tracer displacement), DDR2. The conditions noted are these: catalytic domain GST Tag DDR2; Kinase Tracer 178. Summed up: as §1

In assay [3] the target is T3, DDR1 (Mus musculus, UniProt Q03146).
T3 construct: expressed in transfected cells; host or cells: HEK293T
T3 sequence (Q03146 20-911): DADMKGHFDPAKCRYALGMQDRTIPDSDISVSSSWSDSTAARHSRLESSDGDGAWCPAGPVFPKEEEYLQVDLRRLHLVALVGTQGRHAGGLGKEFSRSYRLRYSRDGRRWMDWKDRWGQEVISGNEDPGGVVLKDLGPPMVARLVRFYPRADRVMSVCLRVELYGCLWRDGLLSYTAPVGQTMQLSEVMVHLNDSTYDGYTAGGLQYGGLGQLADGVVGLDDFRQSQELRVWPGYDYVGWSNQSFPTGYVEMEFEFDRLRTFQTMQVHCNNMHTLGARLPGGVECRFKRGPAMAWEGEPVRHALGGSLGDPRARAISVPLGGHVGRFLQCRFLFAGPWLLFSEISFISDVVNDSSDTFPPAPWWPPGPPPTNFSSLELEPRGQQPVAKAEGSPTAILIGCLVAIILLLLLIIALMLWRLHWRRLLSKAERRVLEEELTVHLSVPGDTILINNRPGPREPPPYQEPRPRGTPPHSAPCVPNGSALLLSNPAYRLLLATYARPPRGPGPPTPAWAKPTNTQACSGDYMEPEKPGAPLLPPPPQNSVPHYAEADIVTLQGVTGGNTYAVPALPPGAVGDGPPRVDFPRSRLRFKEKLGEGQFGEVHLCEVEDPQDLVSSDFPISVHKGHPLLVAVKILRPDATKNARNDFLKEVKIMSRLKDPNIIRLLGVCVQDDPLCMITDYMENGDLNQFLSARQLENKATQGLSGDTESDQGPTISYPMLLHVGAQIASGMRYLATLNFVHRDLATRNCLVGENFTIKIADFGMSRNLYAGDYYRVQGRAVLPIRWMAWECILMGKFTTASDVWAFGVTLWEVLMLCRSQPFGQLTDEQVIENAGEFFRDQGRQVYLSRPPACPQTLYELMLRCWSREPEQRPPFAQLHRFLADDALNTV
Put plainly: Cellular assay: inhibition of Collagen I-induced DDR1 autophosphorylation in HEK293T cells transiently transfected with DDR1 plasmid (Western blot). Format: cell-based, human. The conditions noted are these: pcDNA3.1 DDR1 WT mouse plasmid, compound 1 h, then 10 µg/mL Collagen I 1 h, P-DDR1 (Y513), read-out: pDDR1 EC50. In general terms: Immunoblotting shows a protein as a band on a membrane.

T1 sequence (Q08345 610-905 limits assumed): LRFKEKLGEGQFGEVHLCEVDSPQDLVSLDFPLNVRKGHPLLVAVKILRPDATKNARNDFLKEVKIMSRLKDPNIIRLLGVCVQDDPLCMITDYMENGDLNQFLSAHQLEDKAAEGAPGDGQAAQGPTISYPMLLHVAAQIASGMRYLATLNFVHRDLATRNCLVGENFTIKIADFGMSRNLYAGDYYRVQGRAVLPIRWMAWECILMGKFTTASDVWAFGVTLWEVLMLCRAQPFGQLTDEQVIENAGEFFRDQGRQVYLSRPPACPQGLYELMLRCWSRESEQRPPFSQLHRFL

Turning to `CCOC(=O)c1cnc2sc(-c3ccnc(Nc4cccc(N5CCN(CCO)CC5)c4)n3)c(-c3ccccc3)n2c1=O` [Compound 71, 2-(2-{3-[4-(2-Hydroxy-ethyl)-piperazin-1-yl]-phenylamino}-pyrimidin-4-yl)-5-oxo-3-phenyl-5H-thiazolo[3,2-a]pyrimidine-6-carboxylic acid ethyl ester], the 50% inhibitory concentration (IC50) – broadly, the concentration that gives 50% inhibition – in assay [1] stood at 147 nM; in assay [2], 423 nM. Also, the EC50 (as a rule, the concentration that produces a half-maximal response) in assay [3] stood at 34.6 nM.
On to `Cc1cc(=O)n2c(-c3ccccc3)c(-c3ccnc(Nc4cccc(N5CCN(CCO)CC5)c4)n3)sc2n1` [Compound 72, 2-(2-{3-[4-(2-Hydroxy-ethyl)-piperazin-1-yl]-phenylamino}-pyrimidin-4-yl)-7-methyl-3-phenyl-thiazolo[3,2-a]pyrimidin-5-one], for which the IC50 in assay [1] came to 9.06 nM; in assay [2], 26.9 nM. The concentration giving a half-maximal response (EC50) in assay [3] was found to be 59 nM.
On to `CCc1cc(=O)n2c(-c3ccccc3)c(-c3ccnc(Nc4cccc(N5CCN(CCO)CC5)c4)n3)sc2n1` [Compound 74, 7-Ethyl-2-(2-{3-[4-(2-hydroxy-ethyl)-piperazin-1-yl]-phenylamino}-pyrimidin-4-yl)-3-phenyl-thiazolo[3,2-a]pyrimidin-5-one], for which the results for the IC50 in assay [1] and in assay [2] were 12.9 nM and 11.6 nM, respectively. Also, the EC50 in assay [3] is 39.5 nM.
In the case of `Cc1nc2sc(-c3ccnc(Nc4cccc(N5CCN(CCO)CC5)c4)n3)c(-c3ccccc3)n2c(=O)c1C` [Compound 75, 2-(2-{3-[4-(2-Hydroxy-ethyl)-piperazin-1-yl]-phenylamino}-pyrimidin-4-yl)-6,7-dimethyl-3-phenyl-thiazolo[3,2-a]pyrimidin-5-one], the IC50 was found to be 15.3 nM in assay [1] and 55.8 nM in assay [2]. In assay [3], the EC50 is 141 nM.
On to `CCc1c(C)nc2sc(-c3ccnc(Nc4cccc(N5CCN(CCO)CC5)c4)n3)c(-c3ccccc3)n2c1=O` [Compound 77, 6-Ethyl-2-(2-{3-[4-(2-hydroxy-ethyl)-piperazin-1-yl]-phenylamino}-pyrimidin-4-yl)-7-methyl-3-phenyl-thiazolo[3,2-a]pyrimidin-5-one], for which the IC50 amounted to 25.5 nM in assay [1] and 69.4 nM in assay [2]. Further, the EC50 in assay [3] is 46.8 nM.
